The source of these data is ChEMBL document CHEMBL3352488, “1,3-Dimethyl Benzimidazolones Are Potent, Selective Inhibitors of the BRPF1 Bromodomain” (ACS Med Chem Lett, 2014).

The target in data set [1] is Bromodomain-containing protein 4 (Homo sapiens, UniProt O60885, Y390A). In words: Binding affinity to 6His-tagged-BRD4 BD1 Y390A mutant (1 to 477 aa) (unknown origin) by TR-FRET competitive assay. On the technique in general: TR-FRET usually uses a lanthanide donor and a delayed reading to cut background.
The target of data set [2] is Bromodomain-containing protein 4 (Homo sapiens) (UniProt O60885). In words: Binding affinity to His-tagged-BRD4 BD1 (1 to 477 aa) (unknown origin) by STD-NMR analysis.
Data set [3] has the same target. In words: Binding affinity to His-tagged-BRD4 BD1 (1 to 477 aa) (unknown origin) by STD-NMR analysis in presence of GW841819.
A short description of data set [4]: Aqueous solubility of the compound in DMSO/phosphate buffered saline at pH7.4 by chemiluminescent nitrogen detection method. The class given is physicochemical. The settings on record: pH 7.4.
The nature of data set [5]: Permeability of the compound across artificial lipid membrane. The class given is ADME. The note with it: not told; read-out: permeability.

pIC50: −log10 of the molar value. In brackets after ≈: the same amount, converted by molar mass. Activity calls are given as the source filed them. No cut-off for these calls is given here.

Turning to `COc1ccccc1C(=O)Nc1ccc2c(c1)n(C)c(=O)n2C`, in data set [1], the negative-log IC50 (pIC50) (in general, the IC50 on a negative log10 scale, so that one unit is a factor of ten) was below 4.30.

Consider `Cn1c(=O)n(C)c2cc(C(N)=O)ccc21`, for which the pIC50 in data set [1] is 4.10. For the same compound, the result in data set [2] was Active. Besides, the result in data set [3] was inactive. `COc1cccc(C(=O)Nc2cc3c(cc2C)n(C)c(=O)n3C)c1` gave a negative logarithm of the IC50 (pIC50) in data set [1] below 4.30. On the same count and under the same terms, the same measure for `COc1cccc(C(=O)Nc2ccc3c(c2)n(C)c(=O)n3C)c1`: 4.80; for `Cc1ccc(S(=O)(=O)Nc2ccc3c(c2)n(C)c(=O)n3C)c(C)c1`: 5.60. Regarding `COc1ccccc1C(=O)Nc1cc2c(cc1N1CCCCC1)n(C)c(=O)n2C`, in data set [4], the kinetic solubility (as a rule, solubility judged after dilution from a stock solution rather than from solid) was 25 µM (≈ 9.86 µg/mL). Further, the Papp in data set [5] was 35 ×10⁻⁶ cm/s.
